According to patent US11872210B2, “Thiol isomerases inhibitors and use thereof” (WESTERN NEW ENGLAND UNIVERSITY, priority 2017, dated 2024):

Columns and labels:
ERp5 = biological target: T1, ERp5 (Homo sapiens, UniProt Q15084); test: Insulin-based turbidometric assay of thiol isomerase inhibitory activity (ERp5); type: biochemical; conditions: insulin turbidity assay, 6 point dose curve
T1 construct: purchased AbCam (Cambridge Mass.)
T1 sequence (Q15084 20-440): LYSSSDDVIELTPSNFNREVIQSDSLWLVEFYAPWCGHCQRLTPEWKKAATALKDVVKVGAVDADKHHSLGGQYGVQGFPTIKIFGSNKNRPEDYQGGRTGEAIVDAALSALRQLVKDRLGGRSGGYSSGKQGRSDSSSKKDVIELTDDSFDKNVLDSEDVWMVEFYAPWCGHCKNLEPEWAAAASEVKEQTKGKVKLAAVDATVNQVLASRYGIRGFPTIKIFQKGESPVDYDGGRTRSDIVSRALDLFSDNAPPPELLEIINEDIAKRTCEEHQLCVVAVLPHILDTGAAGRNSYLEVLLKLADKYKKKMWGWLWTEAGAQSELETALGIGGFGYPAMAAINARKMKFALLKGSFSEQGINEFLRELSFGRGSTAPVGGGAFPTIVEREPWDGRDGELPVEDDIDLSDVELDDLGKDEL
Text: (§1) Recombinant thiol isomerases were purchased from AbCam (Cambridge Mass.), recombinant insulin (bovine), bacitracin, dithiothreitol (DTT) buffers and all other chemicals were purchased from Sigma Aldrich (St. Louis, Mo.; while 384 well clear bottom plates were purchased from Corning (Corning, N.Y.).
(§2) The catalytic reduction of insulin by thiol isomerases in the presence of DTT results in aggregation of insulin chains. The turbidity of insulin aggregation can be monitored spectrophotometrically at an optical density (OD) at 650 nm. This approach has been used by multiple groups to identify thiol isomerase inhibitors in either a kinetic or endpoint fashion. A final concentration of either 10 μg/mL PDI, 30 μg/mL ERp5, 10 μg/mL ERp72 or 10 μg/mL thioredoxin, 125 μM insulin and 2 mM ethylenediaminetetraacetic acid (EDTA) in 30 μL of 100 mM potassium phosphate buffer was added to each experimental well plate, while negative control wells lacked any thiol isomerase. Lead compounds were diluted in a 6 point dose curve and the turbidity of insulin aggregation was measured kinetically each minute for 75 minutes using a Spectramax M3 plate reader (Molecular Devices, Sunnyvale, Calif.) Specificity assay utilized the insulin turbidity assay as well.

washed platelets = test: Dense granule secretion (ATP, lumi-aggregometer); type: cell-based, human; conditions: 10 μM; collagen 1 μg/mL; vehicle 1.25 nM
Method: (§3) Human Platelet Preparation: 50 mL of blood was drawn from drug free, consenting individuals, into a syringe containing 5 mL sodium citrate (4% w/v) and 7.5 mL warmed ACD (85 mM sodium citrate, 71 mM citric acid and 110 mM glucose). Blood was centrifuged at 102 g for 20 minutes to obtain platelet-rich plasma (PRP), which was then decanted and 104 prostacyclin (PGI2 125 μg/mL, solubilized in ethanol) added. Platelets were pelleted by centrifugation at 1413 g for 10 minutes, platelet poor plasma was discarded and the pellet resuspended in 25 mL Tyrode's-HEPES buffer (134 mM NaCl, 2.9 mM KCl, 0.34 mM Na2HPO4, 12 mM NaHCO3, 20 mM HEPES, 1 mM MgCl2 and 5 mM glucose pH 7.3), 3 mL of ACD and 10 μL PGI2 were added and then following centrifugation at 1413 g for 10 minutes, the platelet pellet was re-suspended to the appropriate cell density using Tyrode's buffer. Platelets were rested for 30 minutes at 30° C. to allow platelet responses to recover.
Dense granule secretion: 395 μL of washed platelets were added to a cuvette and incubated with 5 μL of zafirlukast or vehicle (0.1% (v/v) DMSO) for 3 minutes at 37° C. 50 μL Chronolume substrate was added and incubated for a further 2 minutes. […]
Washed platelets (4×10^8 cells/mL), were pre-treated with zafirlukast (0.1-10 μM) or vehicle for 3 minutes. […] Statistical analysis was calculated using a one-way ANOVA (n=3), *P<0.05.

Tail bleeding assay = type: in vivo, C57/BL6 mice; conditions: infused to circulating concentration of 20 μM, 5 minutes prior to tail biopsy
Method: The effects of zafirlukast on thrombus formation in mice was determined following laser injury of cremaster muscle arterioles, and observed by intravital microscopy. Male C57/BL6 mouse platelets were labelled with DyLight 649-conjugated anti-GPIb antibody (0.2 μg/g body weight) and either vehicle or zafirlukast (ZFL) infused (at a volume required to achieve a circulating concentration of 20 μM). Following laser injury, images were recorded for 5 minutes. […] FIG. 6 illustrates the effects of ZFL on bleeding were determined by tail bleeding assay. Vehicle or ZFL (at a volume required to achieve a circulating concentration of 20 μM) were infused into the femoral veins of C57/BL6 mice, 5 minutes prior to tail biopsy. 0.5 cm of tail tip was excised and blood collected in phosphate-buffered saline (PBS), and time to cessation of bleeding was recorded. […] Graphs represent mean±SEM, n=10 per treatment, data analyzed by Student's T test, ***p<0.005.

PDI = biological target: T2, PDI (Homo sapiens, UniProt P07237); test: Insulin-based turbidometric assay of thiol isomerase inhibitory activity (PDI); type: biochemical; conditions: insulin turbidity assay, 6 point dose curve
T2 construct: purchased AbCam (Cambridge Mass.)
Text: as §1, §2

[1] = system: platelets (fibrinogen receptor αIIbβ3); test: Fibrinogen binding to αIIbβ3 by flow cytometry; type: cell-based, human
Method: as §3
Flow Cytometry: 5 μL platelets (2×10^8 cells/mL) was added to 42 μL HEPES-buffered saline with 1 mM Ca2+. To this, 0.5 μL zafirlukast (0.6 μM-10 μM) or montelukast (0.6 μM-10 μM) or vehicle (0.1% (v/v) DMSO) was added and incubated for 5 minutes. 1 μL anti-human CD62p (1:500 dilution) and 1 μL anti-fibrinogen FITC conjugate (1:500 dilution) or 2 μL of anti-PAC-1 antibody were added to samples. Platelets were treated with 5 μL CRP-XL (1 ug/mL) or 5 μL Tyrode's for 20 minutes in the dark. Samples were then fixed with 450 μL of 0.2% (v/v) paraformaldehyde and analyzed on an accuri C6 flow cytometer (BD Biosciences, UK), with the threshold set to 20,000. Platelet populations were gated and 10,000 events recorded.

[2] = system: integrin αIIbβ3 on washed platelets; test: Integrin activation (PAC-1 antibody binding) by flow cytometry; type: cell-based, human; conditions: CRP-XL stimulated
Method: as §3, with “Platelets were rested for 30 minutes at 30° C. to allow platelet responses to recover.” left out
Flow Cytometry: 5 μL platelets (2×10^8 cells/mL) was added to 42 μL HEPES-buffered saline with 1 mM Ca2+. […] Samples were then fixed with 450 μL of 0.2% (v/v) paraformaldehyde and analyzed on an accuri C6 flow cytometer (BD Biosciences, UK), with the threshold set to 20,000. Platelet populations were gated and 10,000 events recorded.
Washed platelets (2×10^8 cells/mL) were incubated with vehicle, zafirlukast (0.6-10 μM) or montelukast (0.6-10 μM) for 5 minutes. […] Data were analyzed using one-way ANOVA, n=3.

T2 sequence (P07237 18-508): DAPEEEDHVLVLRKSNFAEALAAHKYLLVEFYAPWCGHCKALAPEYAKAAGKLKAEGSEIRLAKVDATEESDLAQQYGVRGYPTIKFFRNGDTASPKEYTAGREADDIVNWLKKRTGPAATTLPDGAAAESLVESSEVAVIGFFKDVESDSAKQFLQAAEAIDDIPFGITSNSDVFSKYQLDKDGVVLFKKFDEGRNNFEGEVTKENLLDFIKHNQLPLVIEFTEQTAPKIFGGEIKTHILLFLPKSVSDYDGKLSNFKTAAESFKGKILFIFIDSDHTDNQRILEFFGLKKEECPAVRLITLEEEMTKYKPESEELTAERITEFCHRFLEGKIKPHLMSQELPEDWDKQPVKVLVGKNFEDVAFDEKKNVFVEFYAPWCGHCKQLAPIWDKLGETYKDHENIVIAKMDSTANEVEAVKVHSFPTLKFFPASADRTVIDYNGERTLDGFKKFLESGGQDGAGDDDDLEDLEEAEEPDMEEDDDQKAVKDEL

Q: Which “inhibitory range on ERp5” value (ERp5) does the source give for `COc1cc(C(=O)NS(=O)(=O)c2ccccc2C)ccc1Cc1cn(C)c2ccc(NC(=O)OC3CCCC3)cc12` [zafirlukast, 4-(5-cyclopentyloxycarbonylamino-1-methylindol-3-ylmethyl)-3-methoxy-N-o-tolylsulfonylbenzamide] here?
A: 10 to 300 µM

Q: What about the “mean ATP secretion” value (washed platelets) of the same molecule?
A: 0.327 nM

Q: And the “bleeding time (time to cessation of bleeding), in words” value (Tail bleeding assay)?
A: no change in bleeding time

Q: What about the “inhibitory range on PDI” value (PDI) of the same molecule?
A: 30 to 300 µM

Q: What about the “fibrinogen binding (fluorescence)” value ([1]; 10 μM, CRP-XL stimulated, vehicle 12520 Au) of the same molecule?
A: 3696 Au

Q: And the inhibition at 10 µM ([1]; Homo sapiens, Platelet, 10 μM, CRP-XL stimulated)?
A: 64.5%

Q: And the “fibrinogen binding (in words)” value ([1]; lower concentrations (below 10 μM))?
A: trend towards inhibition

Q: What about the “cell-surface bound PAC-1 antibody (fluorescence)” value ([2]; 10 μM, vehicle 1623 Au) of the same molecule?
A: 748.5 Au

Q: What about the inhibition at 10 µM ([2]; Homo sapiens, Platelet, PAC-1 binding) of the same molecule?
A: 54%
